Like-named read-outs stand apart in the source and are kept apart here.
Assays:
LTD4 receptors = target: T1, LTD4 receptors (Cavia porcellus, UniProt Q2NNR5); assay: Antagonism of LTD4 (guinea pig ileum and trachea, pA2); conditions: *Estimated; negative log of KB; antagonist 30 minute incubation
T1 construct: A section of terminal ileum was removed, the lumen cleaned, and the tissue divided into 2.5 cm segments; from tissue; host or cells: ileum and trachea of guinea pig (ileum: male Hartley)
T1 sequence (Q2NNR5 1-340): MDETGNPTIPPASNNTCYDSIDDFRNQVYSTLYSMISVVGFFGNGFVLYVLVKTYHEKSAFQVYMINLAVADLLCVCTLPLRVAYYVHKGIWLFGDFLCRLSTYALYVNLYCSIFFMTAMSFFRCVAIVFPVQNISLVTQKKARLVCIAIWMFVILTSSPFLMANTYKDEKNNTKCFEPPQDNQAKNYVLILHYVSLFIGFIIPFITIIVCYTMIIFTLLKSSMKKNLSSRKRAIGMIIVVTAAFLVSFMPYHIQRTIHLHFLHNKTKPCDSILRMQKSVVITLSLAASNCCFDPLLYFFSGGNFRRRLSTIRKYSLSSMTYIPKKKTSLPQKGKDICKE
Description: Male, Hartley guinea pigs weighing 200-450 grams were killed by decapitation. A section of terminal ileum was removed, the lumen cleaned, and the tissue divided into 2.5 cm segments. The ilea were mounted in 10 ml tissue baths containing Krebs-bicarbonate solution of the following composition in mmoles/liter: KCl, 4.6; CaCl2 ·2H2 O, 1.2; KH2 PO4, 1.2; MgSO4 ·7H2O, 1.2; NaCl, 118.2; NaHCO3, 24.8; and dextrose, 10.0. The bath fluid was maintained at 37° C. and aerated with 95 percent oxygen and 5 percent CO2 In addition, the buffer contained 1×10^-6 M atropine to reduce ileal spontaneous activity. Isometric measurements were made with a Grass FT03C. force-displacement transducer and recorded on a Grass polygraph as change in grams of force. A passive force of 0.5 g was applied to the tissues. After an appropriate equilibration period, single submaximal control responses to pure LTD4 were obtained. Following a five minute exposure of the ileum to an experimental drug, the control concentration of LTD4 was added to the tissue bath. The response of the ileum to LTD4 in the presence of the drug was compared to the response in the absence of the drug.
A more detailed analysis of LTD4 antagonism was then made. In these experiments, cumulative concentration-response curves were obtained to LTD4 in guinea pig ileum and trachea. This was followed by a 30 minute incubation with various concentrations of the experimental drug. The concentration response curve to LTD4 was then repeated in the presence of the antagonist. Only one concentration of antagonist was used on a single tissue. KB values were calculated by the method of Furchgott [Ann. N.Y. Acad. Sci., 139, 553 (1967)] using the following equation. [formula]
Dose ratio refers to the concentration of agonist required to elicit 50 percent of the maximal response ED50) in the presence of the antagonist divided by the ED50 in the absence of the antagonist.

[1] = test system: LTB4 induced cell aggregation (neutrophils); assay: LTB4 Induced Aggregation Assay (neutrophils); type: cell-based, guinea pig; conditions: Cavia porcellus, Neutrophil; for inhibition at 10 µM: drug concentration 10^-5 M; for inhibition at 1 µM: drug concentration 10^-6 M; for inhibition at 0.1 µM: drug concentration 10^-7 M
Description: Neutrophils were elicited by intraperitoneally injecting 20 ml of Dulbecco's calcium and magnesium deficient phosphate buffered saline (PBS) containing 2% oyster glycogen into each of two male Hartley guinea pigs. Eighteen hours later, cells accumulating in the peritoneal cavity were harvested by washing the peritoneum with approximately 100 ml of PBS containing 10 units/ml of heparin. The cells were centrifuged at 200 g for 8 min. and the supernatant fluid discarded. Erythrocytes present in the pellet were lyzed by vigorous agitation of the cells in 9 ml of ice-cold distilled water for approximately 30 seconds. Physiological osmolarity was restored by adding 1.5 ml of 0.6 M KCl. Twelve milliliters of PBS were added and the resuspended cells centrifuged at 200 g for 8 min. at 4°. The pellet was resuspended in 5 ml PBS. The cell concentration was determined and additional buffer added to make the concentration […]; cells per ml.
The aggregation assay was carried out by measuring the amount of LTB4 induced cell aggregation with a Payton single channel aggregometer, model 300B. The apparatus was calibrated by placing a cuvette containing the cell suspension in it and adjusting the zero knob so that the recorder pen rested at 1 mV. A cuvette containing 20% less cells was then inserted into the aggregometer and the output knob adjusted so that the recorder pen rested at 9 mV. With these settings an 8 mV change causes the recorder pen to move 200 mm. When conducting an assay, 0.5 ml of cell suspension (5×10^6 cells) was added to each cuvette. Five microliters of a solution of test compound were then added. Most compounds were initially dissolved in DMSO at 1×10^-2 M and then diluted appropriately with PBS so that the test compound concentration was 1×10^-5 to 1×10^-7 M and the test DMSO concentration was 0.1% or less. A few of the more water insoluble compounds were first dissolved in DMSO at 1 to 6×10^-3 M and then diluted appropriately with PBS. The test concentration of DMSO was never higher than 1%. After a 2 minute equilibration period of cells and test compound, 5 μl of a solution containing CaCl2 (100 mM) and MgCl2 (50 mM) were added. One minute later, 5 μ l of PBS containing LTB4 (3×10^-7 M) were added. The change occurring in the amount of light transmitted during the subsequent minute was measured. […] During a typical experiment, several measurements of the amount of aggregation induced by LTB4 were made and an average value determined. The effect of a test compound on this aggregation was determined by the following formula: [formula]

[2] = target: T2, specific receptor on the membrane of human neutrophils (leukotriene B4) (Homo sapiens, UniProt Q15722); assay: Inhibition of Binding of ^3 H-LTB4 to Peripheral Human Neutrophils; conditions: for inhibition at 1 µM / inhibition at 0.1 µM / inhibition at 10 µM: read-out: LTB4 Binding Inhibition; for inhibition at 0.1 µM: drug concentration 10^-7 M
T2 construct: Freshly-prepared buffy coat layers from two individuals were obtained from a local blood donor center; endogenous in cells; host or cells: intact human peripheral blood neutrophils from buffy coats of two donors
Description: Cells used in the assay were isolated by standard techniques of centrifugation on Ficoll-Hypaque, dextran 70 sedimentation and hypotonic lysis. The following procedure was used. Freshly-prepared buffy coat layers from two individuals were obtained from a local blood donor center. The cells were mixed and diluted to 484 ml with phosphate buffered saline containing heparin (10 units/ml) and heat-inactivated calf serum (5%). This was divided into 20 ml aliquots and the aliquots layered on top of Ficoll-Paque (12 ml). The material was then centrifuged at 500 g for 40 minutes at room temperature. The resulting upper layer of platelets and mononuclear cells was discarded. The lower layer containing erythrocytes and neutrophils was retained. Buffer was added (1 ml per 4 ml of lower layer) and the suspension mixed. For each milliliter of this mixture, 0.33 ml of 6% Macrodex was added. After stirring, the cells were allowed to sediment for 1 hour at 37° C. The resulting erythrocyte pellet was discarded and the neutrophil enriched supernatant fluid centrifuged at 500 g for 10 minutes at 4° C. Erythrocytes still present in this cell pellet were lysed by incubating the cells with 5-8 ml ice-cold distilled water for 30-45 seconds. Subsequently, the volume was made up to 50 ml by addition of ice-cold buffer and the cells resuspended. The suspension was then centrifuged at 300 g for 10 minutes at 4° C. The cells were finally resuspended at a cell density of 2×10^7 cells/ml in the assay buffer This buffer consisted of Hanks' balanced salt solution and 0.1% ovalbumin (pH 7.3).
The amount of bound ^3 H-LTB4 was then measured and compared with the amount bound in the absence of test compound. The assay was carried out in microcentrifuge tubes by adding first 10 μl test compound dissolved in DMSO, followed by adding 20 μl ^3 H-LTB4 diluted in assay buffer, and finally adding 500 μl of the cell suspension. At the end of the 10 minutes incubation, 300 μl of a mixture of dibutyl and dinonyl phthalate (7:2) were added and the tubes centrifuged for 2 minutes in a microcentrifuge. The radioactivity bound to the cell pellet was measured by scintillation spectroscopy. Appropriate corrections for nonspecific bonding of ^3 H-LTB4 were made.

[3] = drug concentration 10^-6 M, 0.1-0.2 nM ^3 H-LTB4, 10 minutes at 4° C
[4] = 0.1-0.2 nM ^3 H-LTB4, 10 minutes at 4° C
[5] = drug concentration 10^-5 M, 0.1-0.2 nM ^3 H-LTB4, 10 minutes at 4° C

T2 sequence (Q15722 whole entry): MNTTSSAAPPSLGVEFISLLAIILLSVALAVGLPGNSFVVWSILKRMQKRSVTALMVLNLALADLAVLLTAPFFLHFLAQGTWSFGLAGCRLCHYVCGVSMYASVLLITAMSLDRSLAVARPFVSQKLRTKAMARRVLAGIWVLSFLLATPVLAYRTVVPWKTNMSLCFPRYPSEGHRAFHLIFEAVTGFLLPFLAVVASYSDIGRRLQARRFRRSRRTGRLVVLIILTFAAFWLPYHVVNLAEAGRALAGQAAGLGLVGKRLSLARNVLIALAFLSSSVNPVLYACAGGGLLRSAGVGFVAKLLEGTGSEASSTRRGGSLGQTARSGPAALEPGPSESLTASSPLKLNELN

Kb (LTD4 receptors)	inhibition at 1 µM [2, 3]	inhibition at 10 µM [2, 5]	LTB4 Binding Inhibition [2, 3]	Compound	inhibition at 10 µM [1]	inhibition at 1 µM [1]	inhibition at 0.1 µM [1]	inhibition at 0.1 µM [2, 4]	inhibition at 10 µM [2]
0.324 µM	55%	96%	–	CCCCCCCCCCOc1ccc(C(=O)c2cccc(C(=O)O)c2)cc1CCc1nnn[nH]1 [Example 28, 3-{4-(Decyloxy)-3-[2-(1H-tetrazol-5-yl)ethyl]benzoyl}benzoic acid]	–	–	–	–	–
0.955 µM	71%	98%	–	CCCCCCCCCCOc1ccc(C(=O)c2cccc(-c3nnn[nH]3)c2)cc1CCC(=O)O [Example 29, 2-(Decyloxy)-5-[3-(1H-tetrazol-5-yl)benzoyl]benzenepropanoic acid]	–	72%	14%	11%	–
1 µM	–	71%	35 percent inhibition	CCCCCCCCCCOc1ccc(C(=O)c2ccccc2C(=O)O)cc1CC(=O)O [Example 20, 5-(2-Carboxybenzoyl)-2-(decyloxy)benzeneacetic acid]	–	78%	32%	–	–
0.398 µM	28%	93%	–	CCCCCCCCCCOc1ccc(C(=O)c2cccc(-c3nnn[nH]3)c2)cc1CC(=O)O [Example 24, 2-(Decyloxy)-5-[3-(1H-tetrazol-5-yl)benzoyl]benzeneacetic acid]	–	–	–	–	–
2 µM	19%	78%	–	CCCCCCCCCCOc1ccc(C(O)c2cccc(C(=O)O)c2)cc1CC(=O)O (stereo not drawn) [Example 45, 5-[(3--Carboxyphenyl)hydroxymethyl]-2-(decyloxy)benzeneacetic acid]	77%	11%	–	–	–

The next lines start with the compound.

Compound	Kb (LTD4 receptors)	inhibition at 1 µM [2, 3]	inhibition at 10 µM [2, 5]	LTB4 Binding Inhibition [2, 3]	inhibition at 10 µM [1]	inhibition at 1 µM [1]	inhibition at 0.1 µM [1]	inhibition at 0.1 µM [2, 4]	inhibition at 10 µM [2]
CCCCCCCCCCOc1ccc(C(=NO)c2cccc(C(=O)O)c2)cc1CCC(=O)O [Example 52, 5-[(3-Carboxyphenyl)(hydroxyimino)methyl]-2-(decyloxy)benzenepropanoic acid]	0.661 µM	61%	–	–	94%	89%	38%	17%	92%
CCCCCCCCCCOc1ccc(C(=O)c2cccc(C(=O)O)c2)c(CC(=O)O)c1 [Example 21, 2-(3-Carboxybenzoyl)-5-(decyloxy)benzeneacetic acid]	1.41 µM	23%	74%	–	–	–	–	–	–
CCCCCCCCCCOc1ccc(C(=O)c2cccc(C(=O)O)c2)cc1Cc1nnn[nH]1 [Example 3, 3-[4-(Decyloxy)-3-(1-tetrazol-5-ylmethyl]benzoyl]benzoic acid]	0.501 µM	26%	76%	–	–	84%	2%	–	–
CCCCCCCCCCOc1ccc(C(=O)c2ccccc2CC(=O)O)cc1CCC(=O)O [Example 33, 5-[2-(Carboxymethyl)benzoyl]-2-(decyloxy)benzenepropanoic acid]	1.15 µM	79%	–	–	–	94%	45%	17%	100%
CCCCCCCCCCOc1ccc(C(=O)c2cccc(C(=O)O)c2)cc1CCC(=O)O [Example 22, 5-(3-Carboxybenzoyl)-2-(decyloxy)benzenepropanoic acid]	1.95 µM	62%	95%	–	–	–	83%	17%	–

Source: patent US5171882A, “Leukotriene antagonists” (Eli Lilly and Company, priority 1990, dated 1992)
